Patent US20220274947A1, “NOVEL HETEROARYL-TRIAZOLE COMPOUNDS AS PESTICIDES” (Bayer Aktiengesellschaft, priority 2019, published 2022)

Key:
Type in all cases: in vivo
[1] = tested on: Aedes aegypti strain MONHEIM; assay: Aedes aegypti test (AEDSAE surface treatment & contact assay); details: exposure 30 minutes, 24 hours after contact, read-out: efficacy (mortality); for mortality at 4 mg/m2: surface concentration 4 mg/m^2, glazed tile; for mortality at 20 mg/m2: surface concentration 20 mg/m^2, glazed tile
How it was run: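 Compound dissolved in acetone (2 mg/ml) with 2000 ppm rapeseed oil methyl ester, pipetted onto glazed tile and dried. Adult mosquitoes exposed on the surface for 30 min; percent mortality scored 24 h after contact.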

[2] = tested on: Rhipicephalus sanguineus; assay: Rhipicephalus sanguineus in-vitro contact test, adult brown dog ticks (RHIPSA Cont); details: 48 h, after 48 hours, read-out: activity (efficacy: 100% means all ticks are dead or moribund); for pest or weed control at 1 µg/cm2, 100 g/ha: application rate 1 μg/cm^2 (=100 g/ha); for pest or weed control at 5 µg/cm2, 500 g/ha: application rate 5 μg/cm^2 (=500 g/ha)
How it was run: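 Mortality of adult R. sanguineus was judged 48 h after contact with acetone-applied residues on glass tube walls. Ticks that stayed immotile or moved without coordination when heated to 45–50 °C (max 5 min) counted as dead or moribund.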

[3] = tested on: Rhipicephalus microplus; assay: Rhipicephalus (Boophilus) microplus dip test (BOOPMI Dip); details: 168 h, application rate 100 ppm, engorged adult female ticks, after 7 days, read-out: activity (efficacy: 100% means all eggs are infertile)
Experimental: Rhipicephalus (Boophilus) Microplus—Dip Test (BOOPMI Dip)
Test Animal: cattle ticks (Rhipicephalus microplus) strain parkhurst, SP-resistant Solvent: dimethyl sulfoxide
To produce a suitable preparation of active compound, 10 mg of active compound are dissolved in 0.5 mL solvent, and the concentrate is diluted with water to the desired concentration.
This compound solution is pipetted into tubes. 8-10 engorged, adult, female cattle ticks (Rhipicephalus microplus) are placed in perforated tubes. These tubes are immersed in the aqueous compound solution until the ticks are completely moistened. After the liquid has drained off, the ticks are transferred to a filter paper in a plastic tray and stored in a climate chamber.
After 7 days egg deposition of fertile eggs is monitored. Eggs where fertility is not visible are stored in a climate chamber till hatching after about 42 days. An efficacy of 100% means all eggs are infertile; 0% means all eggs are fertile.

[4] = tested on: Ctenocephalides felis; assay: Ctenocephalides felis oral test (CTECFE Oral); details: 48 h, read-out: activity (mortality)
How it was run: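 Percent mortality was recorded 2 days after roughly 20 adult Ctenocephalides felis fed on treated cattle blood. The blood was warmed to 37 °C beneath a parafilm membrane, with the fleas kept at room temperature. Compound was dissolved in DMSO and diluted into the blood to test concentration.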

[5] = tested on: Myzus persicae; assay: Myzus persicae oral test; details: 120 h, read-out: activity (mortality)
How it was run: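 Percent mortality was recorded at day 5, where 0% means no aphids killed. Compound prepared from an acetone concentrate diluted in water and combined with IPL41 medium containing sugar was offered to mixed-stage green peach aphids, which sucked it through a parafilm seal.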

[6] = tested on: Anopheles funestus strain FUMOZ-R; assay: Anopheles funestus test (ANPHFU surface treatment & contact assay); details: exposure 30 minutes, 24 hours after contact, read-out: efficacy (mortality); for mortality at 4 mg/m2: surface concentration 4 mg/m^2, glazed tile; for mortality at 20 mg/m2: surface concentration 20 mg/m^2, glazed tile
How it was run: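 Adult FUMOZ-R mosquitoes were exposed 30 min to glazed tiles treated with compound in acetone plus 2000 ppm rapeseed oil methyl ester, after solvent evaporation. Percent mortality was scored 24 h after contact.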

[7] = tested on: Myzus persicae; assay: Myzus persicae spray test; details: in Brassica rapa, foliar, 120 h; for mortality at 100 g/ha: read-out: activity (mortality), application rate 100 g/ha, spray, Chinese cabbage leaf disks, after 5 days; for mortality at 500 g/ha: read-out: activity (mortality), application rate 500 g/ha, spray, Chinese cabbage leaf disks, after 5 days
How it was run: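 Aphid mortality in % was assessed 5 days after spraying; leaf disks of Brassica pekinensis carrying mixed-instar green peach aphids were treated. Spray preparation: active compound in acetone plus dimethylformamide, diluted with emulsifier-containing water (1000 ppm).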

[8] = tested on: Culex quinquefasciatus strain P00; assay: Culex quinquefasciatus test (CULXFA surface treatment & contact assay); details: exposure 30 minutes, 24 hours after contact, read-out: efficacy (mortality); for mortality at 4 mg/m2: surface concentration 4 mg/m^2, glazed tile
Experimental: Culex quinquefasciatus Test (CULXFA Surface Treatment & Contact Assay) Solvent: Aceton+2000 ppm rapeseed oil methyl ester (RME)
In order to produce a sufficient, active ingredient containing solution it is necessary to solve the test compound in the solvent-mix (acetone at 2 mg/ml/RME 2 000 ppm). This solution is pipetted onto a glazed tile and after evaporation of the acetone, adult mosquitoes of the species Culex quinquefasciatus strain P00 are placed onto the dried surface. The exposure time is 30 minutes. Mortality in percent (%) is determined 24 hours after contact of the insects to the treated surface. 100% mortality means that all tested insects are dead, whereas 0% means that no insect died.

SMILES	mortality at 4 mg/m2 [1]	mortality at 20 mg/m2 [1]	pest or weed control at 1 µg/cm2, 100 g/ha [2]	pest or weed control at 5 µg/cm2, 500 g/ha [2]	pest or weed control at 100 ppm [3]	mortality at 100 ppm [4]	mortality at 4 ppm [5]	mortality at 4 mg/m2 [6]	mortality at 20 mg/m2 [6]	mortality at 100 g/ha [7]	mortality at 500 g/ha [7]	mortality at 4 mg/m2 [8]	mortality at 20 mg/m2 ([8]; surface concentration 20 mg/m^2, glazed tile)	mortality at 0.8 ppm [5]
CCc1nc([C@H](C)NC(=O)c2cc(C(F)(F)F)cc(C(F)(F)F)c2)n(-c2ccc(C#N)cn2)n1 [I-1]	80 to 100%	80 to 100%	80%	100%	100%	90%	100%							
CCc1nc([C@H](C)NC(=O)c2cc(Cl)cc(Cl)c2)n(-c2ccc(C#N)cn2)n1 [I-2]				100%	100%	90%								
C[C@H](NC(=O)c1cc(Cl)cc(C(F)F)c1)c1ncnn1-c1ccc(C#N)cn1 [II-12]	80 to 100%		100%	100%		100%	100%	80 to 100%	80 to 100%	90%	90%	80 to 100%	80 to 100%	
Cc1nc([C@H](C)NC(=O)c2cc(Br)cc(OC(F)(F)F)c2)n(-c2ccc(C#N)cn2)n1 [II-47]	80 to 100%	80 to 100%	100%	100%	80%	100%	100%		80 to 100%	100%				100%
Cc1nc([C@H](C)NC(=O)c2cc(Br)cc(Br)c2)n(-c2ccc(C#N)cn2)n1 [II-52]	80 to 100%	80 to 100%	100%	100%		100%	100%	80 to 100%	80 to 100%	90%		80 to 100%		100%
Cc1nc([C@H](C)NC(=O)c2cc(C#N)cc(C(F)(F)F)c2)n(-c2ccc(C#N)cn2)n1 [II-53]	80 to 100%	80 to 100%	80%	100%	100%	100%	100%			100%				100%
Cc1nc([C@H](C)NC(=O)c2cc(Br)cc(C#N)c2)n(-c2ccc(C#N)cn2)n1 [II-54]	80 to 100%	80 to 100%	100%	100%	80%	90%	100%			90%				100%
C[C@H](NC(=O)c1cc(C(F)(F)F)cc(C(F)(F)F)c1)c1ncnn1-c1ccc(C(=O)N(C)CC2CC2)cn1 [II-73]			100%	100%	100%		100%			100%	100%			
Cc1nc([C@H](C)NC(=O)c2cc(C(F)(F)F)cc(C(F)(F)F)c2)n(-c2ccc(C(=O)N(C)C3CC3)cn2)n1 [II-96]	80 to 100%	80 to 100%	100%	100%	100%	100%	100%			90%				
CCN(C)C(=O)c1ccc(-n2nc(C)nc2[C@H](C)NC(=O)c2cc(C(F)(F)F)cc(C(F)(F)F)c2)nc1 [II-97]		80 to 100%	100%	100%	100%	100%	100%			100%				
